Source: patent publication US6653258B1 (priority 1987, dated 2003)

Assays:
Format in all cases: in vivo
Erysiphe graminis = experiment: Foliar fungal disease test on Erysiphe graminis, plants inoculated 24 hours before treatment (Table V); design: key: 4: no disease; 3: trace −5% of disease on untreated plants; 6-25% of disease on untreated plants; 1: 26-59% of disease on untreated plants; 60-100% of disease on untreated plants; details: plants inoculated 24 hours before treatment
various species of plant = experiment: Plant growth regulating whole plant screen (Table VIII); details: 4000 ppm (4 kg/ha) spray, assessed after 2-6 weeks
Description: This Example illustrates the plant growth regulating properties of compounds 1, 23 and 68 of Table I when tested on a whole plant screen against various species of plant. The plant species are identified in Table VII with the leaf stage at which they are sprayed.
A formulation of each chemical was applied at 4000 ppm (4 kg/ha in a 1000 l/ha field volume) using a tracksprayer and a SS8004E (Teejet) nozzle.
After spraying the plants were grown in a glasshouse with 25° C. day/22° C. night temperature. Supplementary lighting was supplied when necessary to provide an average photoperiod of 16 hours (14 hours minimum).
After 2-6 weeks in the glasshouse, depending on species and time of year, the plants were visually assessed for morphological characteristics against a control of plant sprayed with a blank formulation.

[1] = system: foliar fungal diseases of plants; design: key to disease control grading, […] (VINE): 4: no disease; 3: trace −5% of disease on untreated plants; key to disease control grading, PUCCINIA RECONDITA (WHEAT) / disease control grading, VENTURIA INAEQUALIS (APPLE) / disease control grading, CERCOSPORA ARACHIDICOLA (PEANUT) / disease control grading, PH[…] (TOMATO) / disease control grading, P[…] (RICE): 4: no disease; 3: trace −5% of disease on untreated plants; 6-25% of disease on untreated plants; 1: 26-59% of disease on untreated plants; 60-100% of disease on untreated plants; details: applied to soil (roots) and foliage one or two days before inoculation; for disease control grading, CERCOSPORA ARACHIDICOLA (PEANUT): Cercospora arachidicola on peanut; for disease control grading, P[…] (RICE): P[…] on rice; for disease control grading, PH[…] (TOMATO): Ph[…] on tomato; for disease control grading, PUCCINIA RECONDITA (WHEAT): Puccinia recondita on wheat; for disease control grading, VENTURIA INAEQUALIS (APPLE): Venturia inaequalis on apple; for disease control grading, […] (VINE): […] on vine

Structure (SMILES) | disease control grading, ERYSIPHE GRAMINIS (BARLEY) (Erysiphe graminis) | T = Tillering or side shooting (various species of plant; Barley (BR, Atem)) | disease control grading, CERCOSPORA ARACHIDICOLA (PEANUT) [1] | disease control grading, P[…] (RICE) [1] | disease control grading, PH[…] (TOMATO) [1] | disease control grading, PUCCINIA RECONDITA (WHEAT) [1] | disease control grading, VENTURIA INAEQUALIS (APPLE) [1] | disease control grading, […] (VINE) [1] | A = Apical damage (various species of plant; Tomato (TO, Ailsa Craig)) | P = Phytotoxicity (various species of plant; Tomato (TO, Ailsa Craig)) | R = Retardation (various species of plant; Tomato (TO, Ailsa Craig)) | G = Greening effect (various species of plant; Maize (MZ, Earliking)) | I = Interligular or internodal length reduction (various species of plant; Maize (MZ, Earliking)) | R = Retardation (various species of plant; Maize (MZ, Earliking)) | T = Tillering or side shooting (various species of plant; Tomato (TO, Ailsa Craig))
CO/C=C(/C(=O)OC)c1ccccc1COc1cccnc1 [68 (Table I)] | 4 | 1 (1 = 10-30%) | 3 (trace −5% of disease on untreated plants) | 3 (trace −5% of disease on untreated plants) | 3 (trace −5% of disease on untreated plants) | 3 (trace −5% of disease on untreated plants) | 4 | 4 | – | – | – | – | – | – | –
CO/C=C(/C(=O)OC)c1ccccc1COc1cc(C(F)(F)F)ccn1 [174 (Table I)] | 4 | – | 4 | 0 (60-100% of disease on untreated plants) | 4 | 4 | 4 | 4 | – | – | – | – | – | – | –
CO/C=C(/C(=O)OC)c1ccccc1COc1cccc(CO)c1 [178 (Table I)] | 0 (60-100% of disease on untreated plants) | – | 3 (trace −5% of disease on untreated plants) | 2 (6-25% of disease on untreated plants) | 2 (6-25% of disease on untreated plants) | 3 (trace −5% of disease on untreated plants) | 0 (60-100% of disease on untreated plants) | 4 | – | – | – | – | – | – | –
CCc1ccccc1OCc1ccccc1/C(=C\OC)C(=O)OC [27 (Table I)] | 4 | – | 4 | 1 (26-59% of disease on untreated plants) | 4 | 4 | 4 | 0 (60-100% of disease on untreated plants) | – | – | – | – | – | – | –
CO/C=C(/C(=O)OC)c1ccccc1COc1ccc(C#N)cc1 [38 (Table I)] | 4 | – | 4 | 0 (60-100% of disease on untreated plants) | 4 | 4 | 4 | 4 | – | – | – | – | – | – | –
CO/C=C(/C(=O)OC)c1ccccc1COc1cccc(I)c1 [25 (Table I)] | 4 | – | 4 | 2 (6-25% of disease on untreated plants) | 3 (trace −5% of disease on untreated plants) | 4 | 4 | 4 | – | – | – | – | – | – | –
CO/C=C(/C(=O)OC)c1ccccc1COc1ccc(Cl)cc1 [23 (Table I)] | 4 | – | 4 | 4 | 4 | 4 | 4 | 4 | 3 (3 = 61-100%) | 3 (3 = 31-50%) | 3 (3 = 61-100%) | – | – | – | –
CO/C=C(/C(=O)OC)c1ccccc1COc1cccc(Oc2cccc(Br)c2)c1 [183 (Table I)] | 4 | – | 4 | 3 (trace −5% of disease on untreated plants) | 4 | 0 (60-100% of disease on untreated plants) | 4 | 4 | – | – | – | – | – | – | –
CO/C=C(/C(=O)OC)c1ccccc1COc1cccc(Cl)c1 [1 (Table I)] | 4 | – | 4 | 4 | 4 | 4 | 4 | 4 | 3 (3 = 61-100%) | 2 (2 = 11-30%) | 3 (3 = 61-100%) | 1 (1 = 10-30%) | 1 (1 = 10-30%) | 1 (1 = 10-30%) | 1 (1 = 10-30%)
CO/C=C(/C(=O)OC)c1ccccc1COc1ccc2ccccc2n1 [149 (Table I)] | 4 | – | – | 4 | 4 | 4 | 4 | 4 | – | – | – | – | – | – | –
CO/C=C(/C(=O)OC)c1ccccc1COc1cccc(C(F)(F)F)n1 [177 (Table I)] | 4 | – | – | 4 | 4 | 4 | 4 | 4 | – | – | – | – | – | – | –
COC=C(C(=O)OC)c1ccccc1C(C)Sc1ccccc1 (centres unmarked) [2 (Table II)] | 4 | – | 0 (60-100% of disease on untreated plants) | 4 | 4 | 4 | 4 | 4 | – | – | – | – | – | – | –
CO/C=C(/C(=O)OC)c1ccccc1COc1ccc(Br)cc1 [159 (Table I)] | 3 (trace −5% of disease on untreated plants) | – | 4 | 0 (60-100% of disease on untreated plants) | 3 (trace −5% of disease on untreated plants) | 4 | 4 | 0 (60-100% of disease on untreated plants) | – | – | – | – | – | – | –
CO/C=C(/C(=O)OC)c1ccccc1COc1c(Cl)cccc1Cl [44 (Table I)] | 4 | – | 3 (trace −5% of disease on untreated plants) | 2 (6-25% of disease on untreated plants) | 3 (trace −5% of disease on untreated plants) | 4 | 4 | 4 | – | – | – | – | – | – | –
CO/C=C(/C(=O)OC)c1ccccc1COc1cccc(Oc2ccccc2)n1 [185 (Table I)] | 4 | – | 4 | 4 | 4 | 4 | 2 (6-25% of disease on untreated plants) | 4 | – | – | – | – | – | – | –
CO/C=C(/C(=O)OC)c1ccccc1COc1cccc(Oc2cccc(C)c2)c1 [181 (Table I)] | 4 | – | 4 | 3 (trace −5% of disease on untreated plants) | 4 | 4 | 4 | 4 | – | – | – | – | – | – | –
CO/C=C(/C(=O)OC)c1ccccc1COc1ccc(Cl)c(Cl)c1 [45 (Table I)] | 3 (trace −5% of disease on untreated plants) | – | 4 | 4 | 4 | 4 | 4 | 4 | – | – | – | – | – | – | –
